Assay results as given in PubChem BioAssay AID1259407 (Chemical Carcinogenesis Research Information System (CCRIS), 2018).
Activity calls are given as the source filed them. The rule behind the calls is not given here.

Tested on: CCRIS mutagenicity, Ames/micronucleus/aberration tests
Assay: CCRIS mutagenicity studies
[1] = Test System: AMES SALMONELLA TYPHIMURIUM, Strain/Indicator: TA98, Metabolic Activation: NONE, Method: STANDARD PLATE
[2] = Test System: AMES SALMONELLA TYPHIMURIUM, Strain/Indicator: TA100, Metabolic Activation: NONE, Method: STANDARD PLATE

CC(N)=S
mutagenic call (Test System: AMES SALMONELLA TYPHIMURIUM, Strain/Indicator: TA102, Metabolic Activation: RAT LIVER S-9, PHENOBARBITAL AND 5,6-BENZOFLAVONE, Method: STANDARD PLATE): inactive; negative
mutagenic call (Test System: AMES SALMONELLA TYPHIMURIUM, Strain/Indicator: TA2638, Metabolic Activation: RAT LIVER S-9, PHENOBARBITAL AND 5,6-BENZOFLAVONE, Method: STANDARD PLATE): inactive; negative
mutagenic call (Test System: E. COLI, Strain/Indicator: WP2 (PKM101), Metabolic Activation: RAT LIVER S-9, PHENOBARBITAL AND 5,6-BENZOFLAVONE, Method: STANDARD PLATE): inactive; negative
mutagenic call (Test System: E. COLI, Strain/Indicator: WP2 UVRA (PKM101), Metabolic Activation: RAT LIVER S-9, PHENOBARBITAL AND 5,6-BENZOFLAVONE, Method: STANDARD PLATE): inactive; negative
mutagenic call (Test System: E. COLI, Strain/Indicator: WP2 UVRA, Metabolic Activation: HAMSTER, LIVER, S-9, AROCLOR 1254, Method: STANDARD PLATE): inactive; negative
mutagenic call (Test System: E. COLI, Strain/Indicator: WP2 UVRA, Metabolic Activation: HAMSTER, LIVER, S-9, Method: STANDARD PLATE): inactive; negative
mutagenic call (Test System: E. COLI, Strain/Indicator: WP2 UVRA, Metabolic Activation: MOUSE, LIVER, S-9, AROCLOR 1254, Method: STANDARD PLATE): inactive; negative
mutagenic call (Test System: E. COLI, Strain/Indicator: WP2 UVRA, Metabolic Activation: MOUSE, LIVER, S-9, Method: STANDARD PLATE): inactive; negative
mutagenic call (Test System: E. COLI, Strain/Indicator: WP2 UVRA, Metabolic Activation: NONE, Method: STANDARD PLATE): inactive; negative
mutagenic call (Test System: E. COLI, Strain/Indicator: WP2 UVRA, Metabolic Activation: RAT, LIVER, S-9, AROCLOR 1254, Method: STANDARD PLATE): inactive; negative
mutagenic call (Test System: E. COLI, Strain/Indicator: WP2 UVRA, Metabolic Activation: RAT, LIVER, S-9, Method: STANDARD PLATE): inactive; negative
mutagenic call (Test System: MOUSE LYMPHOMA, Strain/Indicator: L5178Y (TK+/TK-), Metabolic Activation: NONE, Method: SUSPENSION/PLATE): active; positive
mutagenic call (Test System: MOUSE LYMPHOMA, Strain/Indicator: L5178Y (TK+/TK-), Metabolic Activation: RAT, LIVER, S-9, AROCLOR 1254, Method: SUSPENSION/PLATE): active; positive
mutagenic call (Test System: MOUSE LYMPHOMA, Strain/Indicator: L5178Y (TK+/TK-), Metabolic Activation: RAT, LIVER, S-9, Method: SUSPENSION/PLATE): inactive; negative

COc1ccc(/C=C/c2ccc([N+](=O)[O-])cc2)cc1
mutagenic call (Test System: AMES SALMONELLA TYPHIMURIUM, Strain/Indicator: TA98(NR), Metabolic Activation: NONE, Method: STANDARD PLATE): inactive; negative
mutagenic call (Test System: AMES SALMONELLA TYPHIMURIUM, Strain/Indicator: TA98 (NR), Metabolic Activation: S-9, Method: STANDARD PLATE): active; positive
mutagenic call [1]: active; positive
mutagenic call (Test System: AMES SALMONELLA TYPHIMURIUM, Strain/Indicator: TA98, Metabolic Activation: S-9, Method: STANDARD PLATE): active; positive
mutagenic call (Test System: AMES SALMONELLA TYPHIMURIUM, Strain/Indicator: TA100 (NR), Metabolic Activation: NONE, Method: STANDARD PLATE): inactive; negative
mutagenic call (Test System: AMES SALMONELLA TYPHIMURIUM, Strain/Indicator: TA100 (NR), Metabolic Activation: S-9, Method: STANDARD PLATE): inactive; negative
mutagenic call [2]: active; positive
mutagenic call (Test System: AMES SALMONELLA TYPHIMURIUM, Strain/Indicator: TA100, Metabolic Activation: S-9, Method: STANDARD PLATE): active; positive

C[C@]12C/C(=C/O)C(=O)C[C@@H]1CC[C@@H]1[C@@H]2CC[C@@]2(C)[C@H]1CC[C@]2(C)O
mutagenic call (Test System: AMES SALMONELLA TYPHIMURIUM, Strain/Indicator: TA97, Metabolic Activation: HAMSTER, LIVER, S-9, AROCLOR 1254 (10 OR 30%), Method: PREINCUBATION): inactive; negative
mutagenic call (Test System: AMES SALMONELLA TYPHIMURIUM, Strain/Indicator: TA97, Metabolic Activation: NONE, Method: PREINCUBATION): inactive; negative
mutagenic call (Test System: AMES SALMONELLA TYPHIMURIUM, Strain/Indicator: TA97, Metabolic Activation: RAT, LIVER, S-9, AROCLOR 1254 (10 OR 30%), Method: PREINCUBATION): inactive; negative
mutagenic call (Test System: AMES SALMONELLA TYPHIMURIUM, Strain/Indicator: TA98, Metabolic Activation: HAMSTER, LIVER, S-9, AROCLOR 1254 (10 OR 30%), Method: PREINCUBATION): inactive; negative
mutagenic call (Test System: AMES SALMONELLA TYPHIMURIUM, Strain/Indicator: TA98, Metabolic Activation: NONE, Method: PREINCUBATION): inactive; negative
mutagenic call [1]: inactive; negative
mutagenic call (Test System: AMES SALMONELLA TYPHIMURIUM, Strain/Indicator: TA98, Metabolic Activation: RAT LIVER S-9, AROCLOR 1254, 10%, Method: STANDARD PLATE): inactive; negative
mutagenic call (Test System: AMES SALMONELLA TYPHIMURIUM, Strain/Indicator: TA98, Metabolic Activation: RAT, LIVER, S-9, AROCLOR 1254 (10 OR 30%), Method: PREINCUBATION): inactive; negative
mutagenic call (Test System: AMES SALMONELLA TYPHIMURIUM, Strain/Indicator: TA100, Metabolic Activation: HAMSTER, LIVER, S-9, AROCLOR 1254 (10 OR 30%), Method: PREINCUBATION): inactive; negative
mutagenic call (Test System: AMES SALMONELLA TYPHIMURIUM, Strain/Indicator: TA100, Metabolic Activation: NONE, Method: PREINCUBATION): inactive; negative
mutagenic call [2]: inactive; negative
mutagenic call (Test System: AMES SALMONELLA TYPHIMURIUM, Strain/Indicator: TA100, Metabolic Activation: RAT LIVER S-9, AROCLOR 1254, 10%, Method: STANDARD PLATE): inactive; negative
mutagenic call (Test System: AMES SALMONELLA TYPHIMURIUM, Strain/Indicator: TA100, Metabolic Activation: RAT, LIVER, S-9, AROCLOR 1254 (10 OR 30%), Method: PREINCUBATION): inactive; negative
mutagenic call (Test System: AMES SALMONELLA TYPHIMURIUM, Strain/Indicator: TA1535, Metabolic Activation: HAMSTER, LIVER, S-9, AROCLOR 1254 (10 OR 30%), Method: PREINCUBATION): inactive; negative
mutagenic call (Test System: AMES SALMONELLA TYPHIMURIUM, Strain/Indicator: TA1535, Metabolic Activation: NONE, Method: PREINCUBATION): inactive; negative
mutagenic call (Test System: AMES SALMONELLA TYPHIMURIUM, Strain/Indicator: TA1535, Metabolic Activation: NONE, Method: STANDARD PLATE): inactive; negative
mutagenic call (Test System: AMES SALMONELLA TYPHIMURIUM, Strain/Indicator: TA1535, Metabolic Activation: RAT LIVER S-9, AROCLOR 1254, 10%, Method: STANDARD PLATE): inactive; negative
mutagenic call (Test System: AMES SALMONELLA TYPHIMURIUM, Strain/Indicator: TA1535, Metabolic Activation: RAT, LIVER, S-9, AROCLOR 1254 (10 OR 30%), Method: PREINCUBATION): inactive; negative
mutagenic call (Test System: AMES SALMONELLA TYPHIMURIUM, Strain/Indicator: TA1537, Metabolic Activation: NONE, Method: STANDARD PLATE): inactive; negative
mutagenic call (Test System: AMES SALMONELLA TYPHIMURIUM, Strain/Indicator: TA1537, Metabolic Activation: RAT LIVER S-9, AROCLOR 1254, 10%, Method: STANDARD PLATE): inactive; negative
mutagenic call (Test System: ESCHERICHIA COLI, Strain/Indicator: WP2 UVRA, Metabolic Activation: NONE, Method: STANDARD PLATE): inactive; negative
mutagenic call (Test System: ESCHERICHIA COLI, Strain/Indicator: WP2 UVRA, Metabolic Activation: RAT LIVER S-9, AROCLOR 1254, 10%, Method: STANDARD/PLATE): inactive; negative
mutagenic call (Test System: MOUSE LYMPHOMA, Strain/Indicator: L5178Y (TK+/TK-), Metabolic Activation: NONE, Method: SUSPENSION PLATE): inactive; negative
mutagenic call (Test System: MOUSE LYMPHOMA, Strain/Indicator: L5178Y (TK+/TK-), Metabolic Activation: RAT LIVER S-9, AROCLOR 1254, 3%, NADP, ISOCITRATE, Method: SUSPENSION/PLATE): inactive; negative

CC(C)NO
mutagenic call (Test System: CHINESE HAMSTER V-79, Strain/Indicator: V-79/6-THIOGUANINE, Metabolic Activation: NONE, Method: SUSPENSION): active; positive
mutagenic call (Test System: UDS RODENT HEPATOCYTES, Strain/Indicator: THY INCORP (NON-S-PHASE), Metabolic Activation: NONE, Method: LIQUID SCINTILLATION COUNTING): inactive; negative
